Test results taken from publication PMC3572206 (Biomaterials, 2012).

Assays:
[1] = test system: MDA-1986 human head and neck squamous cell carcinoma xenografts
[2] = test system: MDA-MB-468; assay: Cytotoxicity; type: cell-based, human; conditions: read-out: IC50: MDA-MB-468; 72 hrs post-addition
[3] = test system: MDA-1986; assay: Cytotoxicity; type: cell-based, human; conditions: read-out: IC50: MDA-1986; 72 hrs post-addition
[4] = test system: MDA-1986 cells; assay: Nitric oxide release in vitro; type: cell-based, human
[5] = test system: MDA-MB-231; assay: Cytotoxicity; type: cell-based, human; conditions: read-out: IC50: MDA-MB-231; 72 hrs post-addition

| Molecule | progressive disease (PD) rate ([1]; 10 mg/kg, Sugar-NO1 s.c., JS-K i.v.) [%] | animals euthanized (tumor size exceeding 1000 mm^3 or necrosis of the injection site on the tail) ([1]; within 7 weeks) [%] | IC50 [2] [µM] | IC50 [3] [µM] | increase in release half-life compared to JS-K [4] [fold] | IC50 [5] [µM] |
| --- | --- | --- | --- | --- | --- | --- |
| CCOC(=O)N1CCN(/[N+]([O-])=N/Oc2ccc([N+](=O)[O-])cc2[N+](=O)[O-])CC1 [JS-K, O^2-(2,4-Dinitrophenyl) 1-[(4-ethoxycarbonyl)piperazin-1-yl]diazen-1-ium-1,2-diolate, reference compound] | 100 | 100 | 42 | 16 | – | – |
| O=[N+]([O-])c1ccc(ON=[N+]([O-])N2CCN(CCOCCO)CC2)c([N+](=O)[O-])c1 [NO1, O^2-(2,4-Dinitrophenyl) 1-{[4-(2-(2-hydroxyethoxy))ethyl]piperazin-1-yl} diazen-1-ium-1,2-diolate] | – | – | 26 | 32 | 1 | 32 |
| O^2-(2,4-Dinitrophenyl) 1-{[4-(2-hydroxy)ethyl]-3-methylpiperazin-1-yl}diazen-1-ium-1,2-diolate [NO2] | – | – | 27 | 57 | – | – |
